Laboratory results taken from patent US9522962B2, “Peptides, conjugates and method for increasing immunogenicity of a vaccine” (Academisch Ziekenhuis Leiden h.o.d.n. LUMC, priority 2010, dated 2016).
Read-outs that look alike come from different tables or passages of the source. Square brackets hold non-standard residues; d marks the D form. Ends that are not written are not given here. Ahx = NCCCCCC(=O)O

What was measured:
[1] = test system: antibodies in individual human sera (e.g. serum 034960); assay: Tettox ELISA of biotinylated peptides on individual human sera; assay type: binding; conditions: human serum 034960 diluted 100x
Experimental: a 96-wells plate (preferably from Euro-Diagnostica, Arnhem, The Netherlands) is coated with streptavidin. The streptavidin coated 96 wells plate is blocked with PBS containing 5% BSA (200 μl/well, 1 h, room temperature). Subsequently, the plate is washed three times with PBS containing 0.05% TWEEN20® (polysorbate 20). A biotinylated peptide is coated by 1 h incubation at room temperature with 100 μl/well of a 2 μg/ml solution of the biotinylated peptide in PBS containing 1% BSA. The plate is washed three times with PBS containing 0.05% TWEEN20® (polysorbate 20) followed by incubation for 1 h at room temperature with 100 μl serum from […] a human subject as defined above (preferably having a high titer of anti-TTd antibodies) that had been diluted at least 100, 200, 400, 500 or 1000 times and preferably not more than 100,000, 10,000, 7,500, 5,000 or 2,500 times with PBS containing 1% BSA. Then the plate is washed three times with PBS containing 0.05% TWEEN20®(polysorbate 20). Each well is incubated for 1 h at room temperature with a HRP-conjugated IgG antibody (mouse anti-human IgG-HRP monoclonal, clone G18-145, cat no 555788, Becton Dickinson, 100 μl/well of a 1000× dilution in PBS containing 0.05% TWEEN20® (polysorbate 20)) after which the plate is washed three times with PBS containing 0.05% TWEEN20® (polysorbate 20). Development is performed with 2,2′-azino-di-(3-ethylbenzthiazoline sulfonic acid), ABTS+H2O2 1/1000, 100 μl/well. Optical density is measured at 415 nm with a BIO-RAD, model 680, microplate reader. In each plate, preferably a negative contol is included, more preferably at least in triplicate. A preferred negative contol is serum from a human subject without detectable anti-TTd antibodies. Another preferred negative control is a solution of BSA. A peptide according to (ii) above is a peptide according to the invention if it is bound by antibodies in at least 40, 45, 50, 55, 60, 65, 70, 75, 80, 85, 87, 90, 91, 92, 93, 94, 95, 96, 97, 98, 99% most preferably 100% of the tested human serum samples. A peptide is considered to be bound by antibodies in a serum sample if the determined optical density for that particular serum sample is at least 2.0, more preferably 2.5, 3.0, 3.5 or more times higher as compared to the optical density that is determined for the negative control.
Streptavidin coated 96 wells plates (Euro-Diagnostica) were blocked with PBS containing 5% BSA (200 μl/well, 1 h, room temperature). Plates were washed three times with PBS containing 0.05% TWEEN20® (polysorbate 20). Coating of the biotinylated peptides was performed by 1 h incubation at room temperature with 100 μl/well of a 2 μg/ml solution of the biotinylated peptide in PBS containing 1% BSA. Plates were washed three times with PBS containing 0.05% TWEEN20®. Wells were incubated for 1 h at room temperature with either 100 μl TETAQUIN® […] that had been diluted 800× with PBS containing 1% BSA or with 100 μl human serum that had been diluted 100× with PBS containing 1% BSA. Plates were washed three times with PBS containing 0.05% TWEEN20® (polysorbate 20). Each well was incubated for 1 h at room temperature with a HRP-conjugated IgG antibody (mouse anti-human IgG-HRP monoclonal, clone G18-145, cat no 555788, Becton Dickinson, 100 μl/well of a 1000× dilution in PBS containing 0.05% TWEEN20® (polysorbate 20)). Plates were washed three times with PBS containing 0.05% TWEEN20® (polysorbate 20). Development was performed with 2,2′-azino-di-(3-ethylbenzthiazoline sulfonic acid), ABTS+H2O2 1/1000, 100 μl/well. Optical density was measured at 415 nm with a BIO-RAD, model 680, microplate reader.
Thereafter, the inventors tested these 7 peptides on individual sera, because an epitope is needed to which every person makes antibodies.

[2] = test system: antibodies in TETAQUIN® (anti-TTd antibodies); assay type: binding, human
[3] = Table 6, conservative substitutions scan of […]

## A I G I T E L K K L E S K I N K V F Z O [0942-10]
[1]; Table 5, Ala scan of […]
  ELISA OD SERUM 034960: 1.29
[2]; Table 5, Ala scan of […]
  ELISA OD TETAQUIN: 1.12

## F A G I T E L K K L E S K I N K V F Z O [0942-11]
[1]; Table 5, Ala scan of […]
  ELISA OD SERUM 034960: 1.18
[2]; Table 5, Ala scan of […]
  ELISA OD TETAQUIN: 1.04

## F I A I T E L K K L E S K I N K V F Z O [0942-12]
[1]; Table 5, Ala scan of […]
  ELISA OD SERUM 034960: 0.23
[2]; Table 5, Ala scan of […]
  ELISA OD TETAQUIN: 0.65

## F I G A T E L K K L E S K I N K V F Z O [0942-13]
[1]; Table 5, Ala scan of […]
  ELISA OD SERUM 034960: 0.18
[2]; Table 5, Ala scan of […]
  ELISA OD TETAQUIN: 0.30

## F I G I A E L K K L E S K I N K V F Z O [0942-14]
[1]; Table 5, Ala scan of […]
  ELISA OD SERUM 034960: 0.16
[2]; Table 5, Ala scan of […]
  ELISA OD TETAQUIN: 0.38

## F I G I S E L K K L E S K I N K V F Z O [0942-32]
[1]; [3]
  ELISA OD SERUM 034960: 0.70
[2]; [3]
  ELISA OD TETAQUIN: 0.83

## F I G I T A L K K L E S K I N K V F Z O [0942-15]
[1]; Table 5, Ala scan of […]
  ELISA OD SERUM 034960: 1.28
[2]; Table 5, Ala scan of […]
  ELISA OD TETAQUIN: 1.24

## F I G I T D L K K L E S K I N K V F Z O [0942-33]
[1]; [3]
  ELISA OD SERUM 034960: 0.95
[2]; [3]
  ELISA OD TETAQUIN: 1.01

## F I G I T E A K K L E S K I N K V F Z O [0942-16]
[1]; Table 5, Ala scan of […]
  ELISA OD SERUM 034960: 0.91
[2]; Table 5, Ala scan of […]
  ELISA OD TETAQUIN: 0.90

## F I G I T E I K K L E S K I N K V F Z O [0942-34]
[1]; [3]
  ELISA OD SERUM 034960: 0.80
[2]; [3]
  ELISA OD TETAQUIN: 0.72

## F I G I T E L A K L E S K I N K V F Z O [0942-17]
[1]; Table 5, Ala scan of […]
  ELISA OD SERUM 034960: 0.65
[2]; Table 5, Ala scan of […]
  ELISA OD TETAQUIN: 0.62

## F I G I T E L K A L E S K I N K V F Z O [0942-18]
[1]; Table 5, Ala scan of […]
  ELISA OD SERUM 034960: 1.22
[2]; Table 5, Ala scan of […]
  ELISA OD TETAQUIN: 1.06

## F I G I T E L K K A E S K I N K V F Z O [0942-19]
[1]; Table 5, Ala scan of […]
  ELISA OD SERUM 034960: 0.71
[2]; Table 5, Ala scan of […]
  ELISA OD TETAQUIN: 0.70

## F I G I T E L K K I E S K I N K V F Z O [0942-37]
[1]; [3]
  ELISA OD SERUM 034960: 1.14
[2]; [3]
  ELISA OD TETAQUIN: 1.11

## F I G I T E L K K L A S K I N K V F Z O (FIGITELKKLASKINKVF[Ahx]K; not fully specified (residue 20)) [0942-20]
[1]; Table 5, Ala scan of […]
  ELISA OD SERUM 034960: 0.91
[2]; Table 5, Ala scan of […]
  ELISA OD TETAQUIN: 0.85

## F I G I T E L K K L D S K I N K V F Z O (FIGITELKKLDSKINKVF[Ahx]K; not fully specified (residue 20)) [0942-38]
[1]; [3]
  ELISA OD SERUM 034960: 0.37
[2]; [3]
  ELISA OD TETAQUIN: 0.41

## F I G I T E L K K L E A K I N K V F Z O (FIGITELKKLEAKINKVF[Ahx]K; not fully specified (residue 20)) [0942-21]
[1]; Table 5, Ala scan of […]
  ELISA OD SERUM 034960: 1.48
[2]; Table 5, Ala scan of […]
  ELISA OD TETAQUIN: 1.27

## F I G I T E L K K L E S A I N K V F Z O (FIGITELKKLESAINKVF[Ahx]K; not fully specified (residue 20)) [0942-22]
[1]; Table 5, Ala scan of […]
  ELISA OD SERUM 034960: 1.27
[2]; Table 5, Ala scan of […]
  ELISA OD TETAQUIN: 1.10

## F I G I T E L K K L E S K A N K V F Z O (FIGITELKKLESKANKVF[Ahx]K; not fully specified (residue 20)) [0942-23]
[1]; Table 5, Ala scan of […]
  ELISA OD SERUM 034960: 1.08
[2]; Table 5, Ala scan of […]
  ELISA OD TETAQUIN: 0.88
